Data taken from patent US20230348422A1, “ALBICIDIN DERIVATIVES, THEIR USE AND SYNTHESIS” (TECHNISCHE UNIVERSITÄT BERLIN, priority 2020, published 2023).
Converted amounts (≈) assume the structure as drawn. Like-named read-outs stand apart in the source and are kept apart here.

How the values were obtained:
Experiment in all cases: Microdilution assay, MIC
Assay type in all cases: cell-based
[1] = system: M. phlei DSM 750; conditions: Mycolicibacterium phlei, read-out: MIC M. phlei DSM 750
[2] = system: B. subtilis DSM 10; conditions: Bacillus subtilis, read-out: MIC B. subtilis DSM 10
Description: (§1) The tests were performed using the micro dilution method.
(§2) The determination of MIC values was performed according to the ninth edition of the Approved Standard M07-A9 (CLSI. Methods for Dilution Antimicrobial Susceptibility Tests for Bacteria That Grow Aerobically; Approved Standard-Ninth Edition. CLSI document M07-A9. Wayne, PA: Clinical and Laboratory Standards Institute; 2012.)
(§3) The test was carried out for four different bacterial strains (E. coli DSM 1116 [gram negative], B. subtilis DSM 10 [gram positive], M. luteus DSM 1790 [gram positive], S. typhimurium TA100 [gram negative]). 20 μL of cryo stock of each strain were inoculated in 20 mL of LB media (Lysogeny broth: 10 g/L peptone, 5 g/L yeast extract, 5 g/L NaCl) followed by incubation over night at 37° C., 200 rpm. The test inoculum was adjusted by the 0.5 McFarland Standard (OD625 from 0.08 to 0.1). Within 15 min of preparation, the adjusted inoculum suspension was diluted in MHBII media (BBL TM Mueller-Hinton Broth II, Becton, Dickinson and Company, New Jersey/USA) so that each well contained approximately 5×10^5 CFU/mL in a final volume of 100 μL. 95 μL of the inoculum were applied per well and 5 μL of the (diluted) antibiotic substance were added.
(§4) Previously the dry antibiotic compounds were dissolved in DMSO (100%) with a concentration of 2560 μg/mL and the resulting stock solutions were further diluted in DMSO (100%). 5 μL of each antibiotic dilution were applied to the microdilution tray to reach final concentrations of 64 μg/mL to 0.008 μg/mL. One row of each well plate was left as a growth control without antibiotic substances and another row of the microdilution tray was used as sterility control (only MHB II-media). The antimicrobial effect of the solvent (DMSO) was tested by adding 5 μL DMSO to several wells without antibiotics. Purity check and cell titer control were performed according to International Standard M07-A9 on Mueller-Hinton II Agar (Mueller Hinton II Broth, 15 g/L agar-agar). Both microdilution trays and agar plates were incubated at 37° C. for 20 h and subsequently analyzed visually.
(§5) The potency of an antibiotic is determined by the minimum inhibitory concentration (MIC). Contrary to intuition, a particularly low value is equated with a high potency.

[3] = system: M. luteus DSM 1790; conditions: Micrococcus luteus, read-out: MIC M. luteus DSM 1790
Description: as §1, §2, §3, §4, §5

[4] = system: S. typhimurium TA 100; conditions: Salmonella enterica, 20 h, read-out: MIC S. typhimurium TA 100
Description: as §1, §2, §3, §4, §5

[5] = system: E. coli DSM 1116; conditions: Escherichia coli, read-out: MIC E. coli DSM 1116
Description: as §1, §2, §3, §4, §5

[6] = system: E. coli BW25113; conditions: Escherichia coli, read-out: MIC E. coli BW25113
[7] = DSM750, Gram-positive, MHBII media, 37° C., 20 h
[8] = DSM10, Gram-positive, MHBII media, 37° C., 20 h
[9] = DSM1790, Gram-positive, MHBII media, 37° C., 20 h
[10] = Gram-negative, MHBII media, 37° C.
[11] = DSM1116, Gram-negative, MHBII media, 37° C., 20 h
[12] = BW25113, Gram-negative, MHBII media, 37° C., 20 h

MIC [1, 7] [µg/mL] | MIC [2, 8] [µg/mL] | MIC [3, 9] [µg/mL] | MIC [4, 10] [µg/mL] | MIC [5, 11] [µg/mL] | MIC [6, 12] [µg/mL] | SMILES | MIC ([1]; DSM750, 20 h) [µg/mL] | MIC ([2]; DSM10, 20 h) [µg/mL] | MIC ([3]; DSM1790, 20 h) [µg/mL] | MIC [4] [µg/mL] | MIC ([5]; DSM1116, 20 h) [µg/mL] | MIC ([6]; BW25113, 20 h) [µg/mL]
4 (≈ 4.83 µM) | 0.5 (≈ 0.604 µM) | 1 (≈ 1.21 µM) | 0.125 (≈ 0.151 µM) | 0.5 (≈ 0.604 µM) | 0.25 (≈ 0.302 µM) | COc1c(NC(=O)c2ccc(NC(=O)c3ccc(NC(=O)[C@H](Cc4cnn[nH]4)NC(=O)c4ccc(/C=C/c5ccc(O)cc5)cc4)cc3)c(OC)c2O)ccc(C(=O)O)c1O [Compound 3] |  |  |  |  |  | 
1 (≈ 1.21 µM) | 2 (≈ 2.42 µM) | 2 (≈ 2.42 µM) | 0.031 (≈ 0.0375 µM) | 0.063 (≈ 0.0763 µM) | 0.125 (≈ 0.151 µM) | COc1c(NC(=O)c2ccc(NC(=O)c3ccc(NC(=O)[C@H](Cc4cnn[nH]4)NC(=O)c4ccc(C#Cc5ccc(O)cc5)cc4)cc3)c(OC)c2O)ccc(C(=O)O)c1O [Compound 5] |  |  |  |  |  | 
4 (≈ 4.82 µM) | 2 (≈ 2.41 µM) | 2 (≈ 2.41 µM) | 0.125 (≈ 0.151 µM) | 0.5 (≈ 0.603 µM) | 0.25 (≈ 0.301 µM) | COc1c(NC(=O)c2ccc(NC(=O)c3ccc(NC(=O)[C@H](Cc4cnn[nH]4)NC(=O)c4ccc(CCc5ccc(O)cc5)cc4)cc3)c(OC)c2O)ccc(C(=O)O)c1O [Compound 9] |  |  |  |  |  | 
8 (≈ 9.47 µM) | 2 (≈ 2.37 µM) | 4 (≈ 4.73 µM) | 0.125 (≈ 0.148 µM) | 0.5 (≈ 0.592 µM) | 0.25 (≈ 0.296 µM) | COc1c(NC(=O)c2ccc(NC(=O)c3ccc(NC(=O)[C@H](Cc4cnn[nH]4)NC(=O)c4ccc(NC(=N)c5ccc(O)cc5)cc4)cn3)c(OC)c2O)ccc(C(=O)O)c1O [Compound 32] |  |  |  |  |  | 
≥ 8 | ≥ 8 | ≥ 8 | ≥ 8 | ≥ 8 | ≥ 8 | COc1c(NC(=O)c2ccc(NC(=O)c3ccc(NC(=O)[C@H](Cc4cnn[nH]4)NC(=O)c4ccc5[nH]c(-c6ccc(O)cc6)nc5c4)cn3)c(OC)c2O)ccc(C(=O)O)c1O [Compound 33] |  |  |  |  |  | 

Continued, compound first:

SMILES | MIC [1, 7] [µg/mL] | MIC [2, 8] [µg/mL] | MIC [3, 9] [µg/mL] | MIC [4, 10] [µg/mL] | MIC [5, 11] [µg/mL] | MIC [6, 12] [µg/mL] | MIC ([1]; DSM750, 20 h) [µg/mL] | MIC ([2]; DSM10, 20 h) [µg/mL] | MIC ([3]; DSM1790, 20 h) [µg/mL] | MIC [4] [µg/mL] | MIC ([5]; DSM1116, 20 h) [µg/mL] | MIC ([6]; BW25113, 20 h) [µg/mL]
COc1c(NC(=O)c2ccc(NC(=O)c3ccc(NC(=O)[C@H](Cc4cnn[nH]4)NC(=O)c4ccc(C#Cc5ccc(C#N)cc5)cc4)cc3)c(OC)c2O)ccc(C(=O)O)c1O [Compound 1] |  |  |  |  |  |  | 1 (≈ 1.2 µM) | 0.25 (≈ 0.299 µM) | 0.25 (≈ 0.299 µM) | ≤ 0.016 | ≤ 0.016 | 0.031 (≈ 0.0371 µM)
COc1ccc(C#Cc2ccc(C(=O)N[C@@H](Cc3cnn[nH]3)C(=O)Nc3ccc(C(=O)Nc4ccc(C(=O)Nc5ccc(C(=O)O)c(O)c5OC)c(O)c4OC)cc3)cc2)cc1 [Compound 2a] | 1 (≈ 1.19 µM) | 0.25 (≈ 0.298 µM) | 0.5 (≈ 0.595 µM) | ≤ 0.016 | 0.063 (≈ 0.075 µM) | 0.063 (≈ 0.075 µM) |  |  |  |  |  | 
COc1ccc(C#Cc2ccc(C(=O)N[C@@H](Cc3cnn[nH]3)C(=O)Nc3ccc(C(=O)Nc4ccc(C(=O)Nc5ccc(C(=O)O)c(O)c5OC)c(O)c4OC)cc3)cc2)cn1 [Compound 4] | 1 (≈ 1.19 µM) | 0.25 (≈ 0.297 µM) | 0.5 (≈ 0.595 µM) | ≤ 0.016 | 0.063 (≈ 0.0749 µM) | 0.063 (≈ 0.0749 µM) |  |  |  |  |  | 
COc1c(NC(=O)c2ccc(NC(=O)c3ccc(NC(=O)[C@H](Cc4cnn[nH]4)NC(=O)c4ccc(C#Cc5ccc(F)cc5)cc4)cc3)c(OC)c2O)ccc(C(=O)O)c1O [Compound 6] | 0.5 (≈ 0.604 µM) | 0.25 (≈ 0.302 µM) | 0.25 (≈ 0.302 µM) | ≤ 0.016 | 0.031 (≈ 0.0374 µM) | 0.031 (≈ 0.0374 µM) |  |  |  |  |  | 
C#Cc1ccc(C(=O)Nc2ccc(C(=O)N[C@@H](Cc3cnn[nH]3)C(=O)Nc3ccc(C(=O)Nc4ccc(C(=O)Nc5ccc(C(=O)O)c(O)c5OC)c(O)c4OC)cc3)cc2)cc1 [Compound 14] | 1 (≈ 1.17 µM) | 0.5 (≈ 0.586 µM) | 0.5 (≈ 0.586 µM) | 0.063 (≈ 0.0739 µM) | 0.063 (≈ 0.0739 µM) | 0.063 (≈ 0.0739 µM) |  |  |  |  |  | 
COc1c(NC(=O)c2ccc(NC(=O)c3ccc(NC(=O)[C@H](Cc4cnn[nH]4)NC(=O)c4ccc(NC(=O)c5ccc(-c6nnn[nH]6)cc5)cc4)cc3)c(OC)c2O)ccc(C(=O)O)c1O [Compound 15] | 8 (≈ 8.92 µM) | 2 (≈ 2.23 µM) | 8 (≈ 8.92 µM) | 0.063 (≈ 0.0702 µM) | 0.25 (≈ 0.279 µM) | 0.25 (≈ 0.279 µM) |  |  |  |  |  | 
COc1c(/C=C(\F)c2ccc(NC(=O)[C@H](Cc3cnn[nH]3)NC(=O)c3ccc(NC(=O)/C(C)=C/c4ccc(O)cc4)cc3)cc2)ccc(C(=O)Nc2ccc(C(=O)O)c(O)c2OC)c1O [Compound 16] |  |  |  |  |  |  | 0.25 (≈ 0.282 µM) | 0.031 (≈ 0.035 µM) | 0.063 (≈ 0.0711 µM) | 0.031 (≈ 0.035 µM) | 0.063 (≈ 0.0711 µM) | 0.063 (≈ 0.0711 µM)
COc1c(/C=C/c2ccc(NC(=O)[C@H](Cc3cnn[nH]3)NC(=O)c3ccc(NC(=O)/C(C)=C/c4ccc(O)cc4)cc3)cc2)ccc(C(=O)Nc2ccc(C(=O)O)c(O)c2OC)c1O [Compound 17] | 0.5 (≈ 0.576 µM) | 0.063 (≈ 0.0726 µM) | 0.125 (≈ 0.144 µM) | 0.063 (≈ 0.0726 µM) | 0.125 (≈ 0.144 µM) | 0.125 (≈ 0.144 µM) |  |  |  |  |  | 
COc1c(C#Cc2ccc(NC(=O)[C@H](Cc3cnn[nH]3)NC(=O)c3ccc(NC(=O)/C(C)=C/c4ccc(O)cc4)cc3)cc2)ccc(C(=O)Nc2ccc(C(=O)O)c(O)c2OC)c1O [Compound 18] | 0.5 (≈ 0.577 µM) | 0.063 (≈ 0.0728 µM) | 0.25 (≈ 0.289 µM) | 0.016 (≈ 0.0185 µM) | 0.063 (≈ 0.0728 µM) | 0.063 (≈ 0.0728 µM) |  |  |  |  |  | 
